Two compounds from article PMC9196629, “Synthesis, Characterization and Antitumor Mechanism Investigation of Heterometallic Ru(Ⅱ)-Re(Ⅰ) Complexes” (Frontiers in Chemistry, 2022) can be followed below.

The structures appear in SMILES notation.

Common to all, as to format: cell-based, human
The test system of one assay is PARP. The experiment in a line: Western blot of apoptosis-related proteins. Conditions: HeLa, different concentrations, 24 h. As for the experimental part:
(§1) Cysteine aspartate proteases play an important role in apoptosis, especially caspase-3 protein, which is one of the most important execution factors in the apoptotic pathway ([Wang X. et al., 2021]). The poly(ADP-ribose) polymerase (PARP) is associated with DNA repair and guardianship of genetic integrity ([Pandey and Black, 2021]). After treating HeLa cells with different concentrations of RuRe-1 or RuRe-2 for 24 h, the expression of caspase-3 and the caspase substrate PARP apoptotic protein were detected by western blot. […] It was further shown that RuRe-1 and RuRe-2 are activators of caspase-3, which can trigger apoptosis in HeLa cells.
(§2) FIGURE 4 Expression of apoptosis-related protein (caspase-3 and PARP) in HeLa cells treated with RuRe-1 and RuRe-2 for 24 h.
(§3) Western blot analysis. HeLa cells were plated into the 6-well plates, after treating with different doses of RuRe-1 and RuRe-2 for 24 h, the cells were collected and lysed. The protein concentration was determined using the BCA assay kit. Equal amounts of protein were ran on SDS-PAGE and then transferred to the PVDF membrane.
(In general: In western blotting, separated proteins are transferred to a membrane and probed.)

The test system of a further assay is caspase-3. The assay is described as follows: Western blot of apoptosis-related proteins. To be noted: HeLa, different concentrations, 24 h. As for the experimental part: as §1, §2, §3
For another assay, the system named is HeLa cells. The assay is described as follows: Mitochondrial membrane potential (MMP) by Rh123 staining. Conditions: 6 h, confocal microscopy. The source says:
Apoptosis is associated with a decrease in MMP ([Wu et al., 2022]), so we investigated the effects of RuRe-1 and RuRe-2 on MMP. A decrease in fluorescence intensity of rhodamine 123 (Rh123) can indicate the loss of MMP ([Ma et al., 2019]). […] The decline of MMP further confirmed that RuRe-1 and RuRe-2 could influence mitochondrial function and promote apoptosis.
FIGURE 6 RuRe-1 and RuRe-2 induced the loss of MMP analyzed by confocal microscopy with Rh123 staining (λ ex = 488 nm, λ em = 530 ± 20 nm). The incubation time of the compounds was 6 h. Scale bar: 20 μm.
Measurement of MMP. After HeLa cells were adhered to the confocal dishes, the medium was replaced with medium containing the indicated concentrations of RuRe-1 and RuRe-2 for 6 h. Subsequently, the medium was aspirated and the cells were washed three times with PBS, then stained with Rh123 (1 μg/mL) for 30 mins. After washing with PBS twice, cells were observed under a confocal microscopy (λex = 488 nm, λem = 530 ± 20 nm).

For `F[P-](F)(F)(F)(F)F.F[P-](F)(F)(F)(F)F.F[P-](F)(F)(F)(F)F.[C-]#[O+].[C-]#[O+].[C-]#[O+].[Re+].[Ru+2].c1ccc(-c2ccccn2)nc1.c1ccc(-c2ccccn2)nc1.c1ccc(-c2ccnc3c2ccc2c(-c4ccccc4)ccnc23)cc1.c1cnc2c(c1)c1nc(-c3ccncc3)[nH]c1c1cccnc12` [RuRe-1, [Ru(bpy)2LRe(CO)3(DIP)](PF6)3], the “cleavage of PARP (western blot)” value in the assay on PARP is listed as “induced the cleavage”. In the assay on caspase-3, the “cleavage of caspase-3 (western blot)” value is listed as “induced the cleavage”. Besides, in the assay with HeLa cells, the “MMP (green fluorescence intensity of Rh123)” value is listed as “decrease in the green fluorescence intensity of Rh123 in a dose-dependent manner”.
Regarding `F[P-](F)(F)(F)(F)F.F[P-](F)(F)(F)(F)F.F[P-](F)(F)(F)(F)F.[C-]#[O+].[C-]#[O+].[C-]#[O+].[Re+].[Ru+2].c1ccc(-c2ccnc3c2ccc2c(-c4ccccc4)ccnc23)cc1.c1cnc2c(c1)c1nc(-c3ccncc3)[nH]c1c1cccnc12.c1cnc2c(c1)ccc1cccnc12.c1cnc2c(c1)ccc1cccnc12` [RuRe-2, [Ru(phen)2LRe(CO)3(DIP)](PF6)3], in the assay with PARP, the “cleavage of PARP (western blot)” value is on record as “induced the cleavage”. In the assay with caspase-3, the “cleavage of caspase-3 (western blot)” value is listed as “induced the cleavage”. Besides, the “MMP (green fluorescence intensity of Rh123)” value in the assay on HeLa cells is “decrease in the green fluorescence intensity of Rh123 in a dose-dependent manner”.
